The source made the active and inactive calls.
Legend:
[1] = tested on: Streptococcus sp. 'group A'; experiment: Streptococcus pyogenes SK(-)GAS viability under kanamycin – luminescence, BacTiterGlo, confirmation, counter-screen for streptokinase expression inhibitor project, dose response (AID 1900); assay type: functional, organism-based
[2] = target: T1, Streptokinase A (Streptococcus pyogenes serotype M1, UniProt P10520); experiment: viability-normalized secreted streptokinase activity reduction – plasminogen activation absorbance, OD405, dose response (AID 1914); assay type: functional, Streptococcus pyogenes M1 GAS;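 also: secreted streptokinase activity via plasminogen activation per viability signal from cell pellet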
T1 sequence (P10520 whole entry): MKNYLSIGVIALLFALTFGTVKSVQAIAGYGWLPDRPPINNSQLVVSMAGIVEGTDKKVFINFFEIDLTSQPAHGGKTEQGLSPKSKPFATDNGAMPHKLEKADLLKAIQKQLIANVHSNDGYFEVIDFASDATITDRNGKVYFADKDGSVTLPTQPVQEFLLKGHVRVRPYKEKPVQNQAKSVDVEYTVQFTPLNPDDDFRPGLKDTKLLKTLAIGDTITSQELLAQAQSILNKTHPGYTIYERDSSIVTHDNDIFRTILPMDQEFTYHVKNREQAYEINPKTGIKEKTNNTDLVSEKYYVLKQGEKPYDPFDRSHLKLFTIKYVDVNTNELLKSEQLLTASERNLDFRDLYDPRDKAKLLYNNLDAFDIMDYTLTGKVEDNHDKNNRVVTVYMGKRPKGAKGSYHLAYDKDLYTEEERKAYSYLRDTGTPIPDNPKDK

[3] = tested on: Streptococcus; experiment: GAS UMAA2166 growth inhibition – luminescence, BacTiterGlo, counter-screen for streptokinase expression inhibitor project, dose response (AID 1915); assay type: functional, organism-based;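 also: potency for reduction of bacterial viability or growth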
[4] = viability inhibitors of stage V gametocytes – luminescence, dose response (AID 1117278); assay type: functional, cell-based;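 also: gametocytes exposed to compound for 24 hours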
[5] = viability loss in human Jurkat cells – cell-based, luminescence, cytotoxicity control for P. falciparum gametocyte viability project, dose response (AID 1117277); assay type: functional;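 also: potency reflects loss of cellular ATP meaning fewer viable cells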
[6] = toxicity to HepG2 liver cells – cell-based, plate reader, dry powder, set 6, cytotoxicity control, dose response (AID 743311); assay type: functional
[7] = cells; conditions: HEK293
[8] = viability loss in THP-1 monocytes – THP-1 cells, cytotoxicity control for Vif-APOBEC3G degradation inhibitor project, dose response (AID 1117359); assay type: functional; conditions: THP-1
[9] = Counterscreen for […] of the human trace amine associated receptor 1 (TAAR1): Fluorescence-based cell-based high throughput dose response assay to identify nonselective Ga16 agonists.; assay type: functional
[10] = target: T2, Trace amine-associated receptor 1 (Homo sapiens, UniProt Q96RJ0); experiment: Fluorescence-based cell-based high throughput dose response assay to identify antagonists of the human trace amine associated receptor 1 (TAAR1).; assay type: functional
T2 sequence (Q96RJ0 whole entry): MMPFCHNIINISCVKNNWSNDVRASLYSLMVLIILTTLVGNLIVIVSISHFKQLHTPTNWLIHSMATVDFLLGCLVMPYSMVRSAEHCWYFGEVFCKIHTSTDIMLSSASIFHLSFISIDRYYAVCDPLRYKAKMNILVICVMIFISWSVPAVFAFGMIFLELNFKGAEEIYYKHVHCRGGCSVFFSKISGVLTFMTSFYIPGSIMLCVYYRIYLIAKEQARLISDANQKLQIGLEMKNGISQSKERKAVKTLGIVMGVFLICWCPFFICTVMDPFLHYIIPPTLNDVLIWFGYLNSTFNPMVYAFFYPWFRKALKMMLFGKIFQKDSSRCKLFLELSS

[11] = Counterscreen for antagonists of the human trace amine associated receptor 1 (hTAAR1): Fluorescence-based cell-based high throughput dose response assay to identify nonselective Ga16 antagonists.; assay type: functional
[12] = target: T2, Trace amine-associated receptor 1; experiment: Counterscreen for antagonists of the human trace amine associated receptor 1 (hTAAR1): Fluorescence-based cell-based high throughput dose response assay to identify TAAR1 Agonists.; assay type: functional
[13] = target: Induced myeloid leukemia cell differentiation protein Mcl-1 (Homo sapiens, UniProt Q07820); assay type: functional
[14] = target: T3, Carboxy-terminal domain RNA polymerase II polypeptide A small phosphatase 1 (Homo sapiens, UniProt Q9GZU7); experiment: CTDSP1 inhibitors, concentration-response, biochemical, absorbance readout, ultra-high-throughput screen actives (AID 540297); assay type: functional
T3 sequence (Q9GZU7 whole entry): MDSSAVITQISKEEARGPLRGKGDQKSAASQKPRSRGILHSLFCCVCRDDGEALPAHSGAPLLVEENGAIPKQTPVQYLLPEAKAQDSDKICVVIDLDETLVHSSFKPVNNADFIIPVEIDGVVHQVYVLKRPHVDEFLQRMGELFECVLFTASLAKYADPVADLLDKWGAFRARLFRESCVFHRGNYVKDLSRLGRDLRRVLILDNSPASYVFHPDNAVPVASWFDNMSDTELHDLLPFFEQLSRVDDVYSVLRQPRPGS

[15] = target: T4, Probable nicotinate-nucleotide adenylyltransferase (Staphylococcus aureus (strain N315), UniProt P65502); assay type: functional, Staphylococcus aureus subsp. aureus N315;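 as to IC50 Mean: confirmatory dose-response retesting of NadD inhibitor hits first found in an ultra-high-throughput screen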
[16] = target: T4, Probable nicotinate-nucleotide adenylyltransferase; assay type: functional, Staphylococcus aureus subsp. aureus N315; conditions: read-out: IC50_Mean
[17] = Luminescence-based cell-based high throughput dose response assay to identify activators of the DAF-12 from the parasite S. stercoralis (ssDAF-12).; assay type: functional
[18] = NIH-3T3 fibroblast cytotoxicity, dose response, cytotoxicity control, cell-based, fluorescence, Alamar Blue, secondary assay (AID 2327); assay type: functional;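 also: NIH-3T3 mouse fibroblasts cultured with fluconazole at 8 µg/mL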
[19] = fluconazole-exposed Candida albicans growth modulators – fluorescence, retest, confirmation (AID 2467); assay type: functional, cell-based
[20] = Trypanosoma cruzi growth suppression in host cells – NIH3T3 host cells, beta-gal luminescence, confirmation (AID 2044); assay type: functional, cell-based;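 also: intracellular parasites grown in NIH/3T3 mouse fibroblasts as host cells; luminescent beta-galactosidase reporter signal from transgenic T. cruzi replicating inside host cells; inhibitors lower the luminescence signal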
[21] = NIH3T3 cell viability loss – ATP luminescence, mouse fibroblasts, counter-screen, dose response (AID 2010); assay type: functional, cell-based;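 also: cells exposed to compound for about 90 hours before reading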
[22] = potency of ADAM10 substrate cleavage blockers – biochemical, QFRET, dose response (AID 743254);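 also: ADAM10 enzyme with the DM2 quenched FRET peptide as substrate; EDANS fluorescence gain as the protease cuts the substrate; inhibitor potency against ADAM10 proteolytic activity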
[23] = target: Disintegrin and metalloproteinase domain-containing protein 17 (Homo sapiens, UniProt P78536); experiment: inhibition of ADAM17 substrate cleavage – biochemical, quenched FRET substrate, counter-screen for ADAM10 exosite inhibitor project, dose response (AID 743253)
[24] = target: Protein Tat (Human immunodeficiency virus type 1 group M subtype B (isolate HXB2)(HIV-1), UniProt P04608); assay type: functional;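 also: tat binding to TAR RNA read out by fluorescence polarization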
[25] = glucagon-like peptide-1 release potency in STC-1, concentration-response, half-maximal inhibitory concentration in the STC-1 line (AID 1117345); assay type: functional, cell-based
[26] = Potency on glucagon-like peptide 1 release, dose-response in NCI-H716 cell line, half maximal inhibitory concentration (AID 1117344); assay type: functional, cell-based
[27] = growth inhibition of yeast DHODH-expressing 3D7 parasites – SYBR Green, dry powder samples, dose response (AID 1159570); assay type: functional, cell-based;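 also: parasite growth measured after 72 hours of compound exposure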
[28] = P. falciparum Dd2 growth inhibitors, dose response, SYBR Green, cherry-picked samples (AID 1159567); assay type: functional, cell-based
[29] = Dd2 malaria parasite growth inhibition potency – SYBR Green, dry powder samples, dose response (AID 1159566); assay type: functional, cell-based;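 also: potency for growth inhibition with lower SYBR green DNA signal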
[30] = growth inhibition of PfATP4-mutant resistant parasites – NITD609-resistant line, SYBR Green, dry powder, dose response (AID 1159571); assay type: functional, cell-based;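 also: parasites synchronized at ring stage by sorbitol before testing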
[31] = target: Prothrombin (Homo sapiens, UniProt P00734); experiment: Thrombin 1536 HTS Dose Response Confirmation. [Related pubchem assays: 1046 (Thrombin 1536 HTS; hits were confirmed in this assay)]; assay type: functional
[32] = target: fMet-Leu-Phe receptor (Homo sapiens, UniProt P21462); experiment: formyl peptide receptor binders – dose response (AID 519); assay type: functional
Sequence of fMet-Leu-Phe receptor (P21462 whole entry): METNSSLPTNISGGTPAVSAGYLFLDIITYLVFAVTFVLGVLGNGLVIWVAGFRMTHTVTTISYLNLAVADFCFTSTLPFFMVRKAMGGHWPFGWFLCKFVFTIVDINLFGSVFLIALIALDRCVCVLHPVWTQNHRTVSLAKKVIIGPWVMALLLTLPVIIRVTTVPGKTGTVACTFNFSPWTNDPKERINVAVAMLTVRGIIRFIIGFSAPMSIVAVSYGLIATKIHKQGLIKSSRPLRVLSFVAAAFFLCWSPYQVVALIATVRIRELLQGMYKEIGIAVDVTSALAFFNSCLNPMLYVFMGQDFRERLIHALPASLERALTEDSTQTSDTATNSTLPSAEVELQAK

T4 sequence (P65502 whole entry): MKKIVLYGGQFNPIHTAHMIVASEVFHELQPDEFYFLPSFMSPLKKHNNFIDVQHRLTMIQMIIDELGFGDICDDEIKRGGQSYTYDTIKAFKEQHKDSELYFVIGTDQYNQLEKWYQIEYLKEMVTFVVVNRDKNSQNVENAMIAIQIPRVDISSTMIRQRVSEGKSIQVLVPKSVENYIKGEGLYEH
Sequence of Disintegrin and metalloproteinase domain-containing protein 17 (P78536 whole entry, the tested form may be a part): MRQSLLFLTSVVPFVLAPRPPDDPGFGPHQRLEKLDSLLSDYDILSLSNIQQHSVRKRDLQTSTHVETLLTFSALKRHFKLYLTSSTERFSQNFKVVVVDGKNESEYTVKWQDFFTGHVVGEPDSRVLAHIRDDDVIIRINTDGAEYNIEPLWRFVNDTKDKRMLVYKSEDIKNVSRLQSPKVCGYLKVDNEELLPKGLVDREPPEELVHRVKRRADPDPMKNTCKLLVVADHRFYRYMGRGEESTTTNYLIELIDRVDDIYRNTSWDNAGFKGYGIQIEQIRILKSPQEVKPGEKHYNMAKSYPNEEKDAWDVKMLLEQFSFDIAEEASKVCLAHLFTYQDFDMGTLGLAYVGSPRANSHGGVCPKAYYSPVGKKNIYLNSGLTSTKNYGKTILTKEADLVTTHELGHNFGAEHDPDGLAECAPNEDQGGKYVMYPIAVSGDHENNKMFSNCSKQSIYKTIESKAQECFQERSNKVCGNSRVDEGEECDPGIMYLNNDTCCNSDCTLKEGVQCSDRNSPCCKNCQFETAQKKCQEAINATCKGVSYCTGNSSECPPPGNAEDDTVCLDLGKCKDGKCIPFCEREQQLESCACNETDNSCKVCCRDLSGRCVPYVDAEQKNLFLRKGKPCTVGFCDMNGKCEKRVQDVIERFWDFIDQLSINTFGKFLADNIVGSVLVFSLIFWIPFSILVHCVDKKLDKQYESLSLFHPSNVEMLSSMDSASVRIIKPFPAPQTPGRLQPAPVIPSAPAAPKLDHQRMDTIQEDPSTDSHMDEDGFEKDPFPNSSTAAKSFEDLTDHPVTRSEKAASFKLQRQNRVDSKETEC
Sequence of Protein Tat (P04608 whole entry): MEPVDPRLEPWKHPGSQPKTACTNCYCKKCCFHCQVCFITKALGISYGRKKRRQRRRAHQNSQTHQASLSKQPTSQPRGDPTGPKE
Sequence of Induced myeloid leukemia cell differentiation protein Mcl-1 (Q07820 whole entry, the tested form may be a part): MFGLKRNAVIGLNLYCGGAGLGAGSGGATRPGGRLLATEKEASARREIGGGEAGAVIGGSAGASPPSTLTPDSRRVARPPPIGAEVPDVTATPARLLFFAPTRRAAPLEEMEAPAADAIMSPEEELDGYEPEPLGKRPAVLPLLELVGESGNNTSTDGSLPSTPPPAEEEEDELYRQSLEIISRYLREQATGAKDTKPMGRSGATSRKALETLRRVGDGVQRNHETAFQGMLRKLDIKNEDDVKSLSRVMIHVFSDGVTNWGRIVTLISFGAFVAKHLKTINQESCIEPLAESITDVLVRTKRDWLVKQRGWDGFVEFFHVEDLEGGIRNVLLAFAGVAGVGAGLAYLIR

Structure (SMILES): COc1ccc2ncc(S(=O)(=O)c3ccccc3)c(N3CCN(c4ccccc4)CC3)c2c1
- EC50 [1]: 9.42 µM (active)
- EC50 [2]: > 150 µM (not active)
- EC50 [3]: 74.8 µM (active)
- IC50 [4]: > 109 µM (inactive)
- IC50 [5]: > 83.3 µM (inactive)

Structure (SMILES): CC(C)(C)c1ccc(OCCn2cnc3ccccc32)c(Cl)c1
- AC50 [6]: 36.6 µM (active)
- AC50 [7]: 37.4 µM (active)

Structure (SMILES): COc1cccc(-c2nc(CS(=O)(=O)CC(=O)NC3CC3)c(C)o2)c1
- CC50 [8]: > 40 µM (active)

Structure (SMILES): O=[N+]([O-])c1ccc(-c2c(-c3ccccc3)ncc3ccc(F)cc23)cc1
- EC50 [9]: > 29.9 µM (inactive)
- IC50 [10]: 1.83 µM (active)
- IC50 [11]: > 29.9 µM (inactive)
- EC50 [12]: > 29.9 µM (inactive)

Structure (SMILES): Cc1csc(NC(=O)c2cc(-c3ccco3)nc3ccccc23)n1
- IC50 [13]: 4.03 µM (active)
- IC50 [14]: 4.76 µM (active)
- IC50 [15]: 9.45 µM (active)
- IC50 [16]: 18.4 µM (active)
- IC50 [17]: > 67.5 µM (inactive)

Structure (SMILES): O=C(NNc1ccccc1)C(=O)NNS(=O)(=O)c1ccc(CCCl)cc1
- EC50 [18]: 2.67 µM (inconclusive)
- EC50 [19]: > 38 µM (not active)
- EC50 [20]: 2 µM (active)
- EC50 [21]: 3.48 µM (active)
- IC50 [22]: 23.4 µM (inactive)
- IC50 [23]: 27 µM (inactive)

Structure (SMILES): Cc1cc(-c2csc(NC(=O)c3cc4ccccc4o3)n2)c(C)n1C
- IC50 [24]: > 100 µM (active)

Structure (SMILES): O=c1oc2ccccc2c(O)c1C(CC(O)c1ccc(-c2ccc(Br)cc2)cc1)c1ccccc1 (stereo not drawn) [BROMODIOLONE]
- IC50 [25]: 9.16 µM (inactive)
- IC50 [26]: > 40 µM (inactive)

Structure (SMILES): OC[C@H]1CC[C@@H]2O[C@H](CCc3ccc(C#CCc4ccccc4)cc3)[C@H](n3cc(-c4ccccc4)nn3)C[C@@H]2O1
- AC50 [27]: 1.39 µM (active)
- AC50 [28]: 0.739 µM (active)
- AC50 [29]: 0.407 µM (active)
- AC50 [30]: 0.665 µM (active)

Structure (SMILES): CN1C(=O)/C(=C2\SC(=S)N(C(CCC(=O)O)C(=O)O)C2=O)c2ccccc21 (stereo not drawn)
- IC50 [31]: > 50 µM (not active)
- Ki [32]: > 66.7 µM (inactive)

Structure (SMILES): Cc1cc(N2C(=O)C(O)=C(C(=O)c3ccco3)C2c2cccnc2)no1 (stereo not drawn)
- Ki [32]: > 66.7 µM (inactive)
